Patent US20240246946A1, “MODULATORS OF TREX1” (Constellation Pharmaceuticals, Inc., priority 2021, published 2024)

Assays:
full length human TREX1 = biological target: T1, full length human TREX1 (Homo sapiens, UniProt Q9NSU2); experiment: hTREX1 Biochemical Assay (fluorescence, dsDNA substrate degradation); conditions: biochemical, read-out: hTREX1 IC50
T1 construct: N-terminally His-Tev tagged full length human TREX1; made in house; host or cells: E. coli
T1 sequence (Q9NSU2 1-314): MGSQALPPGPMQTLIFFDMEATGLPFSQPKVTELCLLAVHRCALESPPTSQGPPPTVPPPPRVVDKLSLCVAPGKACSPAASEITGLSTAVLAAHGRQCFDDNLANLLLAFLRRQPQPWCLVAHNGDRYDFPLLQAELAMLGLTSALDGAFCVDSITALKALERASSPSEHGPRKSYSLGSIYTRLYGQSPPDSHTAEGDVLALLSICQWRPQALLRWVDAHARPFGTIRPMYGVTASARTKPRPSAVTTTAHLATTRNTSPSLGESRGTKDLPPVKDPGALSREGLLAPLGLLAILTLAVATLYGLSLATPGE
Protocol: (§1) Degradation of the dsDNA liberates free fluorophore to produce a fluorescent signal. Specifically, 7.5 μL of N-terminally His-Tev tagged full length human TREX1 (expressed in E. coli and purified in house) in reaction buffer (50 mM Tris, 150 mM NaCl, 2 mM DTT, 0.1 mg/mL BSA, 0.01% (w/v) Tween-20, 5 mM MgCl2, pH 7.4) was added to a 384-well Black ProxiPlate Plus (PerkinElmer) which already contained compound (150 nL) at varying concentrations as a 10 point dose-response in DMSO. The plate was incubated at 25° C. for 4 hours. Reactions were initiated by adding 7.5 μL of dsDNA substrate (Strand A: 5′ TEX615/GCT AGG CAG 3′; Strand B: 5′ CTG CCT AGC/IAbRQSp (Integrated DNA Technologies)) in reaction buffer. Final concentrations were 4 pM TREX1, 60 nM dsDNA substrate in reaction buffer with 1.0% DMSO (v/v). After 18 hours at 25° C., reactions were quenched by the addition of 2 μL of 500 mM EDTA.

full length mouse TREX1 = biological target: T2, full length mouse TREX1 (Mus musculus, UniProt Q91XB0); experiment: mTREX1 Biochemical Assay (fluorescence, dsDNA substrate degradation); conditions: biochemical, read-out: mTREX1 IC50
T2 construct: N-terminally His-Tev tagged full length mouse TREX1; made in house; host or cells: E. coli
T2 sequence (Q91XB0 1-314): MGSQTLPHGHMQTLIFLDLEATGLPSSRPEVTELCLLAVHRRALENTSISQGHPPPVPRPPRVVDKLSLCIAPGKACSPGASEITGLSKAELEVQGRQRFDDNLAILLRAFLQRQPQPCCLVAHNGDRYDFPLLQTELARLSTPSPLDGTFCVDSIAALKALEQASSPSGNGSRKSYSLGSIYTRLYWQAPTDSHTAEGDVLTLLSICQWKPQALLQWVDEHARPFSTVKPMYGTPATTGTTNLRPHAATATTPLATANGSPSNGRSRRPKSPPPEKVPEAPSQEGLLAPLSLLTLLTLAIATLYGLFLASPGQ
Protocol: as §1, with “length mouse” for “length human”, “were 6” for “were 4”

SMILES	IC50 (full length human TREX1) [µM]	IC50 (full length mouse TREX1) [µM]
CC(c1nc(C(=O)Nc2cnoc2)c(O)c(=O)n1C)C(c1cnn(C)c1)c1c(C#N)cccc1C#N (single isomer, unassigned) [Example 19 D2E2]	> 0.01	> 0.01
Cc1ccn(C(c2ccccc2Cl)C(C)c2nc(C(=O)Nc3cnoc3)c(O)c(=O)n2C)n1 (single isomer, unassigned) [Example 49 D1E1]	0.001 to 0.01	0.001 to 0.01
Cc1cc(C(c2cc(F)ccc2Cl)C(C)c2nc(C(=O)Nc3cnoc3)c(O)c(=O)n2C)n(C)n1 (single isomer, unassigned) [Example 113 D2E2]	> 0.01	> 0.01
CC(c1nc(C(=O)Nc2cnoc2)c(O)c(=O)n1C)C(c1cnn(C)c1)c1cccnc1C#N (single isomer, unassigned) [Example 7 D1E2]	> 0.01	> 0.01
COCCn1cc(C(c2ccccc2C#N)C(C)c2nc(C(=O)Nc3cnoc3)c(O)c(=O)n2C)cn1 (single isomer, unassigned) [Example 9 D1E2]	> 0.01	> 0.01
CC(c1nc(C(=O)Nc2cnoc2)c(O)c(=O)n1C)C(c1cnn(CCN2CCN(C(=O)OC(C)(C)C)CC2)c1)c1ccccc1C#N (single isomer, unassigned) [Example 21 D2E2]	> 0.01	> 0.01
CC(c1nc(C(=O)Nc2cnoc2)c(O)c(=O)n1C)C(c1cnn(CCN2CCN(C(=O)OC(C)(C)C)CC2)c1)c1ccccc1C#N (single isomer, unassigned) [Example 21 D1E2]	> 0.01	> 0.01
CC(c1nc(C(=O)Nc2cnoc2)c(O)c(=O)n1C)C(c1cnn(CCCN(C)C)c1)c1ccccc1C#N (single isomer, unassigned) [Example 34 D1E2]	> 0.01	> 0.01
COCCn1ncc(C(c2ccccc2C#N)C(C)c2nc(C(=O)Nc3cnoc3)c(O)c(=O)n2C)c1C (single isomer, unassigned) [Example 69 D1E2]	> 0.01	> 0.01
COC(C)(C)Cn1cc(C(c2ccccc2C#N)C(C)c2nc(C(=O)Nc3cnoc3)c(O)c(=O)n2C)cn1 (single isomer, unassigned) [Example 37 D2E2]	> 0.01	
Cc1ccc(C(c2ccccc2C#N)C(C)c2nc(C(=O)Nc3cnoc3)c(O)c(=O)n2C)cn1 (single isomer, unassigned) [Example 5 D1E1]	> 0.01	> 0.01
CCn1cc(C(c2cc(F)c(F)cc2Cl)C(C)c2nc(C(=O)Nc3cnoc3)c(O)c(=O)n2C)cn1 (single isomer, unassigned) [Example 72 D2E1]	> 0.01	> 0.01
CCn1ncc(C(c2ccc(F)cc2C#N)C(C)c2nc(C(=O)Nc3cnoc3)c(O)c(=O)n2C)c1C (single isomer, unassigned) [Example 65 D1E2]	> 0.01	> 0.01
CC(c1nc(C(=O)Nc2cnoc2)c(O)c(=O)n1C)C(c1cnn(C)c1)c1ccc(C(=O)N(C)C)cc1C#N (single isomer, unassigned) [Example 11 D2E1]	> 0.01	> 0.01
Cc1cc(C(c2cc(F)ccc2C#N)C(C)c2nc(C(=O)Nc3cnoc3)c(O)c(=O)n2C)n(C)n1 (single isomer, unassigned) [Example 111 D1E1]	> 0.01	> 0.01
Cc1ncc(C(c2ccccc2C#N)C(C)c2nc(C(=O)Nc3cnoc3)c(O)c(=O)n2C)cn1 (single isomer, unassigned) [Example 67 D1E1]	> 0.01	
Cc1cnn(C(c2ccccc2C#N)C(C)c2nc(C(=O)Nc3cnoc3)c(O)c(=O)n2C)c1 (single isomer, unassigned) [Example 47 D1E2]	> 0.01	
Cc1cnn(C(c2ccccc2C#N)C(C)c2nc(C(=O)Nc3cnoc3)c(O)c(=O)n2C)c1 (single isomer, unassigned) [Example 47 D1E1]	< 0.001	
CC(c1nc(C(=O)Nc2cnoc2)c(O)c(=O)n1C)C(c1cnn(C)c1)c1ccc(F)cc1Cl (single isomer, unassigned) [Example 74 D1E2]	> 0.01	

Results, then the compound that gave them:

IC50 (full length human TREX1) [µM]	IC50 (full length mouse TREX1) [µM]	SMILES
> 0.01	> 0.01	CC(c1nc(C(=O)Nc2cnoc2)c(O)c(=O)n1C)C(c1cnn(CC2CC2)c1)c1ccccc1C#N (single isomer, unassigned) [Example 23 D2E2]
> 0.01		CC(c1nc(C(=O)Nc2cnoc2)c(O)c(=O)n1C)C(c1cnn(C)c1)c1ccc(F)cc1Cl (single isomer, unassigned) [Example 74 D2E2]
> 0.01	> 0.01	COC(C)(C)Cn1cc(C(c2ccccc2C#N)C(C)c2nc(C(=O)Nc3cnoc3)c(O)c(=O)n2C)cn1 (single isomer, unassigned) [Example 37 D1E2]
> 0.01	> 0.01	Cc1nn(C)cc1C(c1ccccc1C#N)C(C)c1nc(C(=O)Nc2cnoc2)c(O)c(=O)n1C (single isomer, unassigned) [Example 3 D1E2]
< 0.001		CC(c1nc(C(=O)Nc2cnoc2)c(O)c(=O)n1C)C(c1cnn(C)c1)c1ccc(F)cc1Cl (single isomer, unassigned) [Example 74 D1E1]
> 0.01	> 0.01	Cc1ncc(C(c2ccccc2Cl)C(C)c2nc(C(=O)Nc3cnoc3)c(O)c(=O)n2C)cn1 (single isomer, unassigned) [Example 44 D2E1]
> 0.01	> 0.01	CC(c1nc(C(=O)Nc2cnoc2)c(O)c(=O)n1C)C(c1cnn(C)c1)c1ccc(C(F)(F)F)cc1C#N (single isomer, unassigned) [Example 30 D1E2]
> 0.01	> 0.01	Cc1nn(C)cc1C(c1cc(F)ccc1Cl)C(C)c1nc(C(=O)Nc2cnoc2)c(O)c(=O)n1C (single isomer, unassigned) [Example 62 D1E2]
> 0.01	> 0.01	CC(c1nc(C(=O)Nc2cnoc2)c(O)c(=O)n1C)C(c1cn(C)cn1)c1ccccc1C#N (single isomer, unassigned) [Example 39 D2E1]
> 0.01	> 0.01	Cc1cncc(C(c2ccccc2C#N)C(C)c2nc(C(=O)Nc3cnoc3)c(O)c(=O)n2C)n1 (single isomer, unassigned) [Example 53 D1E1]
> 0.01	> 0.01	COCCCn1cc(C(c2ccccc2C#N)C(C)c2nc(C(=O)Nc3cnoc3)c(O)c(=O)n2C)cn1 (single isomer, unassigned) [Example 24 D2E1]
< 0.001		[2H]C([2H])([2H])n1cc(C(c2ccccc2C#N)C(C)c2nc(C(=O)Nc3cnoc3)c(O)c(=O)n2C)cn1 (single isomer, unassigned) [Example 76 D1E1]
> 0.01		CCn1cc(C(c2ccc(F)cc2C#N)C(C)c2nc(C(=O)Nc3cnoc3)c(O)c(=O)n2C)c(C)n1 (single isomer, unassigned) [Example 55 D2E1]
> 0.01		CC(c1nc(C(=O)Nc2cnoc2)c(O)c(=O)n1C)C(c1cnn(C)c1)c1ccc(F)cc1Cl (single isomer, unassigned) [Example 74 D2E1]
> 0.01		Cc1ncc(C(c2ccccc2C#N)C(C)c2nc(C(=O)Nc3cnoc3)c(O)c(=O)n2C)cn1 (single isomer, unassigned) [Example 67 D2E1]
> 0.01		Cc1ncc(C(c2ccccc2C#N)C(C)c2nc(C(=O)Nc3cnoc3)c(O)c(=O)n2C)cn1 (single isomer, unassigned) [Example 67 D2E2]
